# Measurements taken from patent US11400106B2, “Methods for inhibiting microbe growth” (priority 2018, dated 2022).
# Like-named read-outs stand apart in the source and are kept apart here.
# Legend:
# E. coli [1] = experiment: Checkerboard microdilution with sodium bicarbonate against E. coli; type: cell-based, Escherichia coli
# Method: (§1) In the following experiments, bacterial cells were cultured in 96-well microtiter plates in cation-adjusted Mueller-Hinton Broth (MHB) for 18 h at 37° C. The main strains used were E. coli (K-12 BW25113) (placed in stationary incubator) and S. aureus (Newman Strain) (incubated at 250 r.p.m). Knockout strains (ΔtolcC and ΔychM) were used from the Keio knockout collection (Baba et al., Construction of Escherichia coli K-12 in-frame, single-gene knockout mutants: the Keio collection. Mol Syst Biol 2, 2006 0008, doi:10.1038/msb4100050 (2006)). For MIC determination and checkerboard analyses, Clinical & Laboratory Standards Institute (CLSI) protocol was used. […] DiSC3 loading of S. aureus cells was performed as previously described (Farha et al., Collapsing the proton motive force to identify synergistic combinations against Staphylococcus aureus. Chemistry & biology 20, 1168-1178, doi:10.1016/j.chembiol.2013.07.006 (2013)). CCCP concentration of 20 μM was used. pH adjustments were made by addition of HCl or NaOH. INT assay and ATP bioluminescence assays were performed as previously described (Farha et al., Collapsing the proton motive force to identify synergistic combinations against Staphylococcus aureus. Chemistry & biology 20, 1168-1178, doi:10.1016/j.chembiol.2013.07.006 (2013)). For chemical-genomic studies, the Keio library was grown overnight in cation-adjusted MHB broth, in 384-well plates. From these, treatment plates (25 mM sodium bicarbonate, or a sterile water control) were inoculated and grown for 15 hours at 37° C., in a stationary incubator. Data was normalized according to Mangat et al (Mangat et al., Rank ordering plate data facilitates data visualization and normalization in high-throughput screening. J Biomol Screen 19, 1314-1320, doi:10.1177/1087057114534298 (2014)), with gene products and GO terms mined from EcoCyc. The GFP promoter library (Keseler et al., EcoCyc: fusing model organism databases with systems biology. Nucleic Acids Res 41, D605-612, doi:10.1093/nar/gks1027 (2013)) was grown for 18 hours at ambient temperature with the same inoculation strategy as with the Keio collection. The analysis pipeline of Zaslaver et al (Zaslaver et al., A comprehensive library of fluorescent transcriptional reporters for Escherichia coli. Nat Methods 3, 623-628, doi:10.1038/nmeth895 (2006)) was used to generate maps of promoter activity, from which lists of promoters with increased or decreased activity were compiled.
# (§2) The effect of sodium bicarbonate on the activity of various antibacterial agents was investigated. Clinical isolates of various bacteria were obtained from the American Type Culture Collection (“ATCC”) and the International Health Management Associates (“IHMA”). Fractional inhibitory concentration indices (FICIs) were determined by setting up standard checkerboard broth microdilution assays in 96-well microtiter plates with serially diluted 8 (or 10) concentrations of each drug (sodium bicarbonate and the antibacterial agent). The protocol for checkerboard analyses was based on the CLSI guidelines. Plates were incubated at 37° C. for 18 hours, and optical density was read at 600 nm. At least 3 replicates were done for each query compound.
# (§3) The FIC index (FICI) is the sum of the two FICs. Chemical-chemical interactions with ΣFIC of less or equal to 0.5 were deemed synergistic.
# (§4) As validation, three of the antibiotic agents were further tested with checkerboard analyses. Checkerboard broth microdilution assays were set up in 96-well microtiter plates with serially diluted 8 (or 10) concentrations of each compound (sodium bicarbonate and the antibiotic). The protocol for checkerboard analyses was based on the CLSI guidelines. Plates were incubated at 37° C. for 18 hours, and optical density was read at 600 nm. At least 3 replicates were done for each query compound.
# E. coli [2] = experiment: microbe, parasite or virus in culture; type: cell-based, Escherichia coli; details: for MIC: Escherichia coli, 18 h, read-out: MIC, E. coli, MHB−
# S. aureus [3] = experiment: Checkerboard microdilution with nigericin; type: cell-based, Staphylococcus aureus
# Text: Shown are microdilution checkerboard analyses, where the extent of inhibition is shown as a heat plot, such that the darkest checkerboard square represents full bacterial growth.
# S. aureus [4] = experiment: microbe, parasite or virus in culture; details: for effect of 25 mM sodium bicarbonate on antibacterial activity: S. aureus, result in words; for MIC: Staphylococcus aureus, 18 h, read-out: MIC, S. aureus, MHB−
# S. aureus [5] = experiment: Checkerboard microdilution with sodium bicarbonate against S. aureus; type: cell-based, Staphylococcus aureus
# Method: as §1, §2, §3, §4
# P. aeruginosa = experiment: Susceptibility testing of P. aeruginosa clinical isolates (n=92); type: cell-based, Pseudomonas aeruginosa; details: P. aeruginosa (n=92); comparators in the absence of bicarbonate
# Method: (§5) This study included one hundred (n=100) clinical isolates of methicillin-resistant Staphylococcus aureus (MRSA) and ninety-two (n=92) clinical isolates of P. aeruginosa. All samples were collected from patients at Hamilton Health Sciences hospitals (Hamilton, Ontario, Canada). Isolates, regardless of site of infection, were selected for study if they were resistant to three or more antibiotics. The isolates were cultured on plates and subsequently tested for antimicrobial susceptibility. Initial culture and antibiotic susceptibility testing were performed by Hamilton General Hospital General Microbiology Laboratory using a VITEK 2 Automated System and its Advanced Expert System (bioMerieux) and were compliant with Clinical & Laboratory Standards Institute (CLSI) antibiotic susceptibility testing formulations. Both quantitative minimum inhibitory concentration (MIC) and CLSI breakpoints were reported for each antibiotic. Additionally, a total of 7 conjunctival-sourced ocular isolates of Streptococcus pneumoniae collected by the International Health Management Associates (IHMA) from various locations in the United States were used in the study.
# (§6) Antimicrobial sensitivity of the pathogenic strains was determined in compliance with the CLSI protocol. Mueller-Hinton agar plates were used to streak out bacterial species and the direct colony suspension method for inoculum preparation was used to make a suspension of the organism in saline to the density of a McFarland 0.5 turbidity standard. Cation-adjusted Mueller-Hinton broth (CA-MHB) manufactured according to ISO technical standard was used for susceptibility testing in standard 96-well microdilution plates. All antibiotics were purchased as powders from Sigma-Aldrich Canada Co. (Oakville, Canada) and dissolved in appropriate solvent to provide stock solutions as instructed by the manufacturer. Desired test antibiotic solutions were diluted in solvent at a highest test concentration resulting in 256 μg/mL. Where sodium bicarbonate was used, aqueous sterile-filtered sodium bicarbonate solution (7.5% stock) from Sigma-Aldrich Canada Co. (Oakville, Canada) was diluted to the desired concentration in CAMHB. Plates were incubated for 18 hours at 37° C. and read at 600 nm on a Tecan, infinite M1000 PRO plate reader. In accordance with CLSI, methods with appropriate medium supplements for fastidious streptococci (2.5% lysed horse blood, Innovative Research, Inc., Novi, Mich.) were used. […] All MICs in the study were conducted in duplicate.
# [6] = system: methicillin-resistant Staphylococcus aureus (MRSA); experiment: Susceptibility testing of MRSA clinical isolates (n=100); type: cell-based; details: MRSA (n=100); comparators in the absence of bicarbonate
# Method: as §5, §6
# S. aureus [7] = experiment: FIC index of pentamidine combined with various salts (checkerboard); type: cell-based, Staphylococcus aureus; details: combination of pentamidine isethionate with each salt; FICI≤0.5 synergy, 1-2 additivity, >4 antagonism
# Method: as §1
# [8] = Text: PMF is driven in part by a transmembrane gradient where the periplasmic side of the membrane has a greater concentration of protons. Thus, the addition of buffering agents to alter the external pH can have a significant effect on PMF. […] Steps were taken throughout the studies to confirm that bicarbonate supplemented media were at pH 7.4, and adjusted where necessary.
# [9] = MHB in the absence of sodium bicarbonate
# [10] = antibiotic agents, MHB in the absence of sodium bicarbonate
# [11] = E. coli, salt at 25 mM, pH adjusted to 7.4
# [12] = antibiotic agents, fold shift in MIC, MHB− vs MHB+
compound,measurement,setting,value
C[C@@H]1O[C@@H]1P(=O)(O)O [Fosfomycin],interaction with sodium bicarbonate (checkerboard),E. coli [1],suppressed
same,effect of 25 mM sodium bicarbonate on antibacterial activity,E. coli [2],suppressed
same,MIC,E. coli [2]; [9],4 µg/mL
same,interaction with nigericin (checkerboard),S. aureus [3],antagonistic interactions
same,"MIC, S. aureus, MHB+",S. aureus [4],64
same,effect of 25 mM sodium bicarbonate on antibacterial activity,S. aureus [4],suppressed
same,MIC,S. aureus [4],16 µg/mL
c1cc2c(cc1C1CCCCC1)c1c3n2CCN=C3CCC1 [I1],interaction with sodium bicarbonate (checkerboard),S. aureus [5],synergistic interactions
COc1ccc(-c2n(CC(=O)OC3CC(C)CCC3C(C)C)c3ccccc3[n+]2C)cc1.[Cl-] (stereo not shown) [I2],interaction with sodium bicarbonate (checkerboard),S. aureus [5],synergistic interactions
CC1=CCCC2C1CCC(C)C2(C)CC/C(C)=C/Cn1c[n+](C)c2c(N)ncnc21.[Cl-] (stereo not shown) [I3],interaction with sodium bicarbonate (checkerboard),S. aureus [5],synergistic interactions
COc1c(N2C[C@@H]3CCCN[C@@H]3C2)c(F)cc2c(=O)c(C(=O)O)cn(C3CC3)c12 [Moxifloxacin],MIC,E. coli [2]; [9],0.0313 µg/mL
same,MIC90 comparison of topical ophthalmic antibiotics,P. aeruginosa,resistance
same,MIC90 comparison of topical ophthalmic antibiotics,[6],resistance
same,MIC,S. aureus [4],0.125 µg/mL
CO[C@@H]1[C@@H](OC(N)=O)[C@@H](O)[C@H](Oc2ccc3c(O)c(NC(=O)c4ccc(O)c(CC=C(C)C)c4)c(=O)oc3c2C)OC1(C)C [Novobiocin],interaction with sodium bicarbonate (checkerboard),E. coli [1],suppressed
same,effect of 25 mM sodium bicarbonate on antibacterial activity,E. coli [2],suppressed
same,MIC,E. coli [2]; [9],32 µg/mL
same,interaction with nigericin (checkerboard),S. aureus [3],antagonistic interactions
same,"MIC, S. aureus, MHB+",S. aureus [4],0.5
same,effect of 25 mM sodium bicarbonate on antibacterial activity,S. aureus [4],suppressed
same,MIC,S. aureus [4],0.031 µg/mL
CC[C@H]1OC(=O)[C@H](C)[C@@H](O[C@H]2C[C@@](C)(OC)[C@@H](O)[C@H](C)O2)[C@H](C)[C@@H](O[C@@H]2O[C@H](C)C[C@H](N(C)C)[C@H]2O)[C@](C)(O)C[C@@H](C)/C(=N\OCOCCOC)[C@H](C)[C@@H](O)[C@]1(C)O [Roxithromycin],interaction with sodium bicarbonate (checkerboard),E. coli [1],synergistic interactions
same,"MIC, E. coli, MHB+",E. coli [2],16 μg of antimicrobial agent/mL of buffer
same,MIC,E. coli [2]; [10],> 128 µg/mL
same,"MIC, S. aureus, MHB+",S. aureus [4],0.5 μg of antimicrobial agent/mL of buffer
same,MIC,S. aureus [4],4 µg/mL
same,interaction with sodium bicarbonate (checkerboard),S. aureus [5],synergistic interactions
[Cl-].[Na+] [Sodium chloride],MIC of dirithromycin in the presence of the salt,E. coli [2]; [11],128 µg/mL
same,FIC Index (with pentamidine in S. aureus),S. aureus [7],2
[F-].[Na+] [Sodium fluoride],MIC of dirithromycin in the presence of the salt,E. coli [2]; [11],128 µg/mL
same,FIC Index (with pentamidine in S. aureus),S. aureus [7],1
O=[N+]([O-])[O-].[Na+] [Sodium nitrate],MIC of dirithromycin in the presence of the salt,E. coli [2]; [11],128 µg/mL
same,FIC Index (with pentamidine in S. aureus),S. aureus [7],2
O=P(O)(O)O [Sodium phosphate],MIC of dirithromycin in the presence of the salt,E. coli [2],>128 µg/mL
same,FIC Index (with pentamidine in S. aureus),S. aureus [7],>8
O=S(=O)([O-])[O-].[Na+].[Na+] [Sodium sulfate],MIC of dirithromycin in the presence of the salt,E. coli [2],128 µg/mL
same,FIC Index (with pentamidine in S. aureus),S. aureus [7],2
[H]/N=C(/N)N[C@H]1[C@H](O)[C@@H](O)[C@H](O[C@@H]2O[C@@H](C)[C@](O)(C=O)[C@H]2O[C@@H]2O[C@@H](CO)[C@H](O)[C@@H](O)[C@@H]2NC)[C@@H](N/C(N)=N\[H])[C@@H]1O [Streptomycin],interaction with sodium bicarbonate (checkerboard),E. coli [1],synergistic interactions
same,"MIC, E. coli, MHB+",E. coli [2],0.12 μg of antimicrobial agent/mL of buffer
same,MIC,E. coli [2]; [10],0.5 µg/mL
same,"MIC, S. aureus, MHB+",S. aureus [4],0.5 μg of antimicrobial agent/mL of buffer
same,MIC,S. aureus [4],2 µg/mL
same,interaction with sodium bicarbonate (checkerboard),S. aureus [5],synergistic interactions
CN(C)C(=O)C(CCN1CCC(O)(c2ccc(Cl)cc2)CC1)(c1ccccc1)c1ccccc1 [loperamide],interaction with sodium bicarbonate (checkerboard),E. coli [1],synergistic interactions
O=P([O-])([O-])[O-].[Na+].[Na+].[Na+] [trisodium phosphate],"effect on activity of dirithromycin, pH not adjusted",[8]; pH not adjusted (pH~10),potentiated the activity of dirithromycin
same,"effect on activity of dirithromycin, pH adjusted",[8]; pH of the medium adjusted to 7.2,loss of synergy
CC(C)[C@@H]1NC(=O)[C@H](C)OC(=O)[C@@H](C(C)C)NC(=O)[C@@H](C(C)C)OC(=O)[C@H](C(C)C)NC(=O)[C@H](C)OC(=O)[C@@H](C(C)C)NC(=O)[C@@H](C(C)C)OC(=O)[C@H](C(C)C)NC(=O)[C@H](C)OC(=O)[C@@H](C(C)C)NC(=O)[C@@H](C(C)C)OC1=O [valinomycin],interaction with sodium bicarbonate (checkerboard),S. aureus [5],synergistic interactions
Spiramycin,interaction with sodium bicarbonate (checkerboard),E. coli [1],synergistic interactions
same,"MIC, E. coli, MHB+",E. coli [2],64 μg of antimicrobial agent/mL of buffer
same,"MIC, E. coli, MHB−",E. coli [2]; [10],>128 μg of antimicrobial agent/mL of buffer
same,"Fold, E. coli",E. coli [2]; [12],8
same,"MIC, S. aureus, MHB−",S. aureus [4]; [10],16 μg of antimicrobial agent/mL of buffer
same,"MIC, S. aureus, MHB+","S. aureus [4]; antibiotic agents, MHB in the presence of 25 mM sodium bicarbonate",0.5 μg of antimicrobial agent/mL of buffer
same,"Fold, S. aureus",S. aureus [4]; [12],16
same,interaction with sodium bicarbonate (checkerboard),S. aureus [5],synergistic interactions
